# Laboratory results taken from patent US7405205B2, “Antitumor antisense sequences directed against R1 and R2 components of ribonucleotide reductase” (Lorus Therapeutics Inc., priority 1996, dated 2008).
# Strand notation (5' to 3'): a small letter for the sugar, then the base; units joined by * are phosphorothioate-linked, units joined directly phosphodiester-linked; [ ] holds rarer units or linkages, { } end groups; capitals alone tell only the bases. d = 2'-deoxy (DNA)
# Experiments:
# Assay type in all cases: cell-based, human
# A549 lung cell carcinoma = experiment: Relative colony forming efficiency after antisense treatment (Table 13); settings: 0.2 μM antisense oligodeoxyribonucleotide phosphorothioate; A549 cells; averages of 2-8 determinations
# [1] = test system: T24 bladder cell carcinoma; experiment: as above; settings: 0.2 μM antisense oligodeoxyribonucleotide phosphorothioate; T24 cells; averages of 2-8 determinations
# [2] = test system: MIA PaCa-2 pancreatic cell carcinoma; experiment: as above; settings: 0.2 μM antisense oligodeoxyribonucleotide phosphorothioate; MIA PaCa-2 cells; averages of 2-8 determinations
# [3] = test system: PC-3 prostrate cell adenocarcinoma; experiment: as above; settings: 0.2 μM antisense oligodeoxyribonucleotide phosphorothioate; PC-3 cells; averages of 2-8 determinations
# [4] = test system: HepG2 hepatocellular carcinoma; experiment: Relative colony forming efficiency after antisense treatment (Table 13, FIG. 12); settings: 0.2 μM antisense oligodeoxyribonucleotide phosphorothioate; HepG2 cells; averages of 2-8 determinations
# [5] = test system: HCT116 colon cell carcinoma; experiment: Relative colony forming efficiency after antisense treatment (Table 13); settings: 0.2 μM antisense oligodeoxyribonucleotide phosphorothioate; HCT116 cells; averages of 2-8 determinations
# [6] = test system: MDA-MB-231 breast cell adenocarcinoma; experiment: Relative colony forming efficiency after antisense treatment (Table 13, FIG. 11, FIG. 12); settings: 0.2 μM antisense oligodeoxyribonucleotide phosphorothioate; MDA-MB-231 cells; averages of 2-8 determinations
# Method: Colony forming efficiency was determined as previously reported [Huang and Wright, 1994]. The cells were cultured for 24 hours at 37° C. in growth medium with 10% fetal bovine serum. The cells were washed in 5 ml phosphate buffered saline, pH 7.2, once prior to lipofectin+/−oligonucleotide treatment.
# The oligonucleotides being tested were added to cell cultures in the presence of 2.5 μg of DOTMA/DOPE (Lipofectin; Life Technologies, Inc.) for four hours. The oligonucleotide was tested at 0.2 μM unless otherwise indicated. Controls were the cultures treated with lipofectin but without the oligonucleotide. After 4 hours the medium containing the oligonucleotide was removed and washed with 5 ml of growth medium. The cells were then cultured in growth medium containing 10% fetal bovine serum for seven to ten days. Surviving cells were visualized by methylene blue staining, and colonies were scored. In some experiments cell aliquotes were removed from the culture and viability was determined using the trypan blue exclusion test [Phillips, 1973]. Results were analyzed as percent of surviving cells compared to control cells.
# To test the antisense effects of many of these sequences as phosphorthioate deoxyribonucleotides, they were examined in relative colony forming experiments performed with a series of human tumor cell lines. Many of these antisense constructs, as predicted, are potent inhibitors of human tumor cell proliferation. For results obtained with cancer cells derived from the bladder, breast, lung, colon, pancreas, prostate, liver and cervix, see Table 13. In addition, in vivo studies with AS-II-626-20 were undertaken in C3H/HeN mice as reported in Table 14 and show a significant reduction in metastasis in the antisense treated mice.
# Colony forming ability of MDA-MB-231 human breast cancer cells treated with 28 different antisense oligonucleotides was estimated as previously described (Choy et al., 1988). Aliquots of cell suspension were seeded into 60 mm Petri dishes and incubated at 37° C. overnight in α-MEM medium supplemented with 10% fetal bovine serum. Cells were washed in 5 ml of phosphate buffered saline, pH 7.2, prior to 0.2 μM antisense/lipofectin treatments for 4 hours. The media containing the antisense oligonucleotides were removed and cells were washed once and cultured in growth medium for 7 to 10 days. Colonies were stained with methylene blue and scored as described (Choy et al., 1988; Huang and Wright 1994). Percent inhibition was calculated by comparison with the number of colonies present in cultures grown in the absence of antisense oligonucleotides. All experiments were performed in quadruplicate. FIG. 11 is a graph of the percentage inhibition of colony formation by treatment with the various antisense oligonucleotides.
# Colony forming ability of various human tumor cell lines was estimated by determining relative colony forming efficiencies (Choy et al., 1988). Cells from various cell lines were washed in 5 ml of phosphate buffered saline, pH 7.2. The cells were treated with 0.2 μM AS-I-618-20 antisense oligonucleotide/lipofectin for 4 hours. The medium containing the antisense oligonucleotide was then removed and the cells were gently washed with 5 ml of growth medium. The cells were cultured in growth medium containing 10% fetal bovine serum for seven to ten days. […] The following human tumor cell lines were evaluated: HepG2 (liver), SK-OV-3 (ovary), U87 (brain), A2058 (melanoma), H460 (lung), MDA-MB-231 (breast) and AsPC-1 (pancreas).
Sequence,"Reduced relative colony forming efficiency, expressed as % inhibition, A549 (A549 lung cell carcinoma) [%]","Reduced relative colony forming efficiency, expressed as % inhibition, T24 [1] [%]","Reduced relative colony forming efficiency, expressed as % inhibition, MIA PaCa-2 [2] [%]","Reduced relative colony forming efficiency, expressed as % inhibition, PC-3 [3] [%]","Reduced relative colony forming efficiency, expressed as % inhibition, HepG2 [4] [%]","Reduced relative colony forming efficiency, expressed as % inhibition, HCT116 [5] [%]","Reduced relative colony forming efficiency, expressed as % inhibition, MDA-MB-231 [6] [%]"
"TCAGCATCCAAGGTAAAAGA (DNA, all phosphorothioate, methylation of C not given here) [AS-II-1338-20]",63.93,63.16,79.17,93.75,80.41,74.73,
"ACTGCCATTGTCACTGCTAT (DNA, all phosphorothioate, methylation of C not given here) [AS-II-1581-20]",90.55,68.22,24.07,85.83,93.07,66.85,
ATGGTACTCGATGGGGAAGA (dA*dT*dG*dG*dT*dA*dC*dT*dC*dG*dA*dT*dG*dG*dG*dG*dA*dA*dG*dA) [AS-II-439-20],76.46,67.84,92.69,77.66,73.04,64.7,
"TTCTGGCAAAAGGTGATACT (DNA, all phosphorothioate, methylation of C not given here) [AS-II-1538-20]",90.34,67.29,50.62,84.71,96.84,51.28,
"ATCCAGCGCAAGGCCCAGTC (antisense; DNA, all phosphorothioate, methylation of C not given here) [AS-II-816-20]",78.4,73.91,93.21,94.08,93.08,88.22,
"TCGCCTACTCTCTTCTCAAA (DNA, all phosphorothioate, methylation of C not given here) [AS-II-1278-20]",,65.42,57.05,85.31,,,90.68
TGGGACAGGGTGCACGGGCG (antisense dT*dG*dG*dG*dA*dC*dA*dG*dG*dG*dT*dG*dC*dA*dC*dG*dG*dG*dC*dG) [AS-II-130-20],86.48,51.94,82.11,74.66,94.28,57.98,
"GAAGCCATAGAAACAGCGGG (antisense; DNA, all phosphorothioate, methylation of C not given here) [AS-II-667-20]",70.3,70.48,85.26,91.8,88.23,76.9,
"CCTCTGATACTCGCCTACTC (DNA, all phosphorothioate, methylation of C not given here) [AS-II-1288-20]",61.04,56.75,80.71,93.55,80.41,66.43,
"GCATCCAAGGTAAAAGAATT (DNA, all phosphorothioate, methylation of C not given here) [AS-II-1335-20]",78.59,59.95,78.78,90.04,72.98,67.87,
"TGGCACCAACTGACTAATAT (antisense; DNA, all phosphorothioate, methylation of C not given here) [AS-II-1976-20]",,,,88.16,,,89.6
AAGCGGCGGGGGTTTTCTCT (dA*dA*dG*dC*dG*dG*dC*dG*dG*dG*dG*dG*dT*dT*dT*dT*dC*dT*dC*dT; antisense) [AS-II-414-20],12.44,11.67,36.11,60.94,30.89,19.1,
GCGGCGGGGGTTTTCTCTCA (dG*dC*dG*dG*dC*dG*dG*dG*dG*dG*dT*dT*dT*dT*dC*dT*dC*dT*dC*dA; antisense) [AS-II-412-20],43.78,22.2,55.25,73.96,26.23,27.98,
